From patent US20210369681A1, “Identification of PPM1D mutations as a novel biomarker for NAMPTi sensitivity” (YALE UNIVERSITY, priority 2018, published 2021)

Assays:
[1] = test system: PPM1Dtrnc. astrocyte xenografts; test: PPM1Dtrnc. astrocyte cell line xenografts; assay type: in vivo, NOD scid gamma (NSG) mice; conditions: 20 mg/kg BID i.p.
Procedure: (§1) Astrocyte xenograft studies were performed in NOD scid gamma (NSG, NOD.Cg-Prkdc^scidIl2rg^tm1Wj1/SzJ female mice 3-4 weeks old) mice. For cell line xenografts, 5×10^6 WT or PPM1D^trnc. astrocytes, stably expressing firefly luciferase (lentivirus-plasmids from Cellomics Technology; PLV-10003), were combined with Matrigel (Corning, 47743-722) in a total volume of 0.2 mL. Cell-Matrigel suspension was injected subcutaneously into both the right and left flanks of shaved NSG mice. Mice were randomly sorted into treatment groups, and tumor burden and growth were measured on a weekly basis, via BLI intensity, as described below. FK866 was solubilized in DMSO at a concentration of 80 mg/ml. Mice were then administered the drug intraperitoneally twice a day for 4 days, repeated weekly for 3 weeks at 20 mg/kg in 10% cyclodextrin. Treatment began after one month of growth. Tumors were harvested after completion of treatment, and mass for each tumor was measured. Serially transplanted xenografts were created via continuous transplantation of PPM1D^trnc. cell line xenografts in NSG mice. […] Mice were sorted randomly into treatment groups, and tumor volume was measured using standard caliper-based techniques. Tumor volume was calculated as length×width^2×0.52. […] Mice were sorted randomly into treatment groups, and tumor burden was assessed through caliper measurement and volume calculations. […]

SU-DIPG-XXXV = test: DIPG spheroid viability (CytoTox-Glo), PPM1D mutant line; assay type: cell-based, human; conditions: 120 hr treatment; spheroids
[2] = test system: SU-DIPG-IV, XIII, and XVII (WT DIPG lines); test: DIPG spheroid viability (CytoTox-Glo), SU-DIPG lines; assay type: cell-based, human
[3] = test system: U2OS cell line xenografts; test: U2OS cell line xenografts; assay type: in vivo, athymic nude mice
[4] = test system: parental and PPM1Dtrnc. immortalized human astrocytes; assay type: cell-based
Procedure: In vitro cellular viability assessments of immortalized human astrocytes, MCF7, and U2OS cell lines were made using a previously described, high-content, microscopy platform developed by our group. In brief, cells were plated in a 96-well plate at a density of 2000 cells/well, and incubated overnight. Drug treatment or vehicle (0.5% DMSO) control was administered, and cells were incubated for 72-96 hours as indicated. Plates were then washed with PBS and fixed with ice-cold 70% ethanol for 2 hours at 4° C. […] Cells were imaged using a Cytation3 imager (BioTek), and images were stitched and analyzed as described above. Viability assessments were made comparing drug treated to vehicle treated conditions. SU-DIPG and HSJD-DIPG-007 spheroid viability was assessed using CytoTox-Glo (Promega), according to the manufacturer's protocols. Spheroids were treated with FK866 for 120 hours before analysis using this method. IC50 calculations were made using GraphPad Prism, by fitting data to an [inhibitor] vs response−variable slope four parameter nonlinear regression (as depicted in the representative figures). siRNA Transfection and Viability Analysis Individual NAPRT targeting siRNAs were ordered from Dharmacon Inc. (Horizon Discovery), with target sequences listed in Table 1. The panel of siRNAs used for synthetic lethal viability screening was hand-selected and ordered from Dharmacon Inc. and were provided in ON-TARGET plus mixtures, each containing up to four unique siRNAs per gene. 2×10^5 astrocytes were reverse-transfected with different siRNAs (200 nM final concentration), using Lipofectamine RNAiMAX (Invitrogen), according to manufacturer's protocols. For individual siRNAs, cells were incubated for 72 hours, pelleted, and lyzed for immunoblotting. For the siRNA screen, cells were incubated for 24 hours and split to different condition plates, where they were incubated for an additional 24 hours. Cells were then treated with the described doses of FK866, and viability was assessed after 72 hours of drug treatment, using the image-based pipeline described above. Viability measurements were made for each siRNA, and normalized to FK866-untreated conditions.
Given the role of PPM1D in DDR pathways, we performed a small molecule synthetic lethal screen with a panel of inhibitors against key DNA repair and metabolic proteins, using methodology described previously by our group.

[5] = test system: serially-transplanted PPM1D mutant astrocyte xenografts; test: Serially-transplanted PPM1D mutant astrocyte xenografts; assay type: in vivo, NSG mice; conditions: 20 mg/kg BID
Procedure: as §1

[6] = test system: NAD and NADP levels in WT and PPM1Dtrnc. astrocytes; test: NAD / NADP quantification in astrocytes; assay type: cell-based, human; conditions: 10 nM FK866, 24 hrs
Procedure: The NAD metabolome was quantitatively analyzed using LC-MS/MS, using two separations on Hypercarb and 13C metabolite standards. Subsequent NAD level analyses were performed using a NAD/NADH Quantification kit (Sigma), as per the manufacturer's specifications. Me/hME-DIP, Bisulfite Conversion, and Global 5-hmC Detection Genomic DNA was purified using the Wizard Genomic DNA purification kit (Promega), and subsequently immunoprecipitated or bisulfite-converted. […] Immunoprecipitated DNA was extracted with phenol/chloroform and analyzed using quantitative PCR (qPCR), as described below. Bisulfite conversion was performed via EpiMark Bisulfite Conversion kit (NEB). Modified DNA was then amplified using EpiMark Hot Start Taq DNA polymerase (NEB), with primers listed in Table 1, and purified with a PCR purification kit (Qiagen). Methylation was then assessed through Sanger-sequencing of the NAPRT promoter. Global 5-hydroxymethylcytosine levels were assessed via the Global 5-hmC quantification kit (Active Motif), according to manufacturer's protocols. Quantitative PCR (qPCR) mRNA transcripts were purified from cells using a RNAeasy kit (Qiagen) and subsequently reverse transcribed using a High Capacity cDNA reverse transcription kit (Applied Biosystems). PPM1D and NAPRT gene expression levels were assessed through qPCR with TaqMan fluorescent probes (all from Applied Biosystems): PPM1D (4331182), NAPRT (4351372), and Actin (4333762F), according to manufacturer's protocol. Expression level fold change was calculated via ΔΔCt comparison, using Actin as a reference gene. The NAPRT promoter region was quantitated via qPCR using Fast Start Universal SYBR Green Master with ROX (Roche), and primers listed in Table 1. All qPCR reactions were run on a StepOnePlus Real Time PCR system (Applied Biosystems).

U2OS = U2OS cell viability; assay type: cell-based, human; conditions: 96 hr treatment
Procedure: (§2) hTert/E6/E7 immortalized human astrocytes were acquired from the lab of Dr. Timothy Chan, and have been previously characterized. Unless noted otherwise, astrocytes were grown in DMEM, high glucose (ThermoFisher Scientific/Gibco) plus 10% FBS (Gibco) as adherent monolayers. U2OS cells were purchased from ATCC, and were grown in DMEM, high glucose plus 10% FBS. MCF7 cells were grown in RPMI1640 (ThermoFisher Scientific/Gibco) with the addition of 10% FBS.

MCF7 = MCF7 cell viability; assay type: cell-based, human; conditions: 96 hr treatment
Procedure: as §2

[7] = test system: NAPRT expression in PPM1Dtrnc. cells; test: NAPRT immunoblot after DNA demethylating agents; assay type: cell-based, human; conditions: varying doses, 72 hrs
Procedure: PPM1D^trnc. astrocytes were treated with 50 µg/mL cycloheximide or 1 μM MG132 (both Sigma) for the indicated amount of time. Cells were then washed, pelleted, and lyzed for subsequent immunoblotting approaches, as described above. Quantification of immunoblot intensity was calculated using ImageJ software, and consisted of multiple (n=3) blots. Irradiation of cells was performed using an X-RAD KV irradiator (Precision X-ray), and treatment consisted of an unfractionated, 10 Gy dose. PPM1D inhibitor treatment with GSK2830371 (Selleckchem), consisted of 50 nM treatment, 24 hours prior to IR. FK866 (Selleckchem), GPP78 (Tocris Bioscience), STF118804 (Tocris Bioscience), STF31 (Tocris Bioscience), 5-azacytidine (Selleckchem), and Decitabine (Selleckchem) were dissolved in DMSO and used for treatment as indicated.

SMILES | Lower final tumor mass, fold change ([1]; 3 cycles, versus vehicle alone) | Reduction in tumor burden (BLI), fold change ([1]; 4 days weekly for 3 weeks, after three weeks, vs vehicle) | Cytotoxic doses (SU-DIPG-XXXV) | Sensitivity to FK866 in media devoid of nicotinic acid ([2]; all SU-DIPG spheroid cultures tested, growth media devoid of nicotinic acid (NA)) | Response to FK866 treatment ([2]; three WT DIPG lines, 120 hr, NA-containing media) | Tumor volume, fold change ([3]; 20 mg/kg BID for 3 four day weekly cycles, vs vehicle) | Body mass difference between the treatment groups ([3]; all mice on study, throughout the dosing schedule (FIG. 13B)) | IC50 ratio (Parental/PPM1Dtrnc.) [4] | Reduced overall tumor size, fold change ([5]; 3 cycles of four days on, three days off, calipers and BLI, vs vehicle) | Tumor growth delay (Kaplan-Meier) ([5]; 3 cycles, compared to a vehicle control) | Decline of NAD and NADP compared with WT astrocytes ([6]; PPM1Dtrnc. cells) | Cellular pools of NAD and NADP ([6]; WT astrocytes) | Sensitivity to FK866 treatment (U2OS) | Sensitivity to FK866 treatment (MCF7) | Reversal of NAPRT gene silencing [7]
O=C(/C=C/c1cccnc1)NCCCCC1CCN(C(=O)c2ccccc2)CC1 [FK866] | 3.1 | 4.93 | low, single-digit nanomolar range | strong sensitivity | resistant | 5.86 | no significant differences | 9746.59 | 17.1 | significantly delayed | significantly greater | dropped markedly | strong sensitivity | strong sensitivity | –
Nc1ncn([C@@H]2O[C@H](CO)[C@@H](O)[C@H]2O)c(=O)n1 [azacytidine] | – | – | – | – | – | – | – | – | – | – | – | – | – | – | failed to reverse
